Data from patent publication US11753407B2, “Compounds for treating spinal muscular atrophy” (PTC Therapeutics, Inc., priority 2012, dated 2023).

Legend:
[1] = tested on: Smn protein in SMA patient fibroblast cells (GM03813); experiment: Smn protein assay in cultured cells (SMN HTRF); type: cell-based, human; details: SMA patient fibroblast cells, 48 hours; for EC1.5x for Smn protein expression: 7-point concentration curve, SMN HTRF, concentration producing 1.5 times Smn protein vs DMSO vehicle control; for maximum fold (Fold) increase of Smn protein: 7-point concentration data, fold relative to vehicle control
In short: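 SMA patient fibroblasts (5,000/well, DMEM-10% FBS) treated 48 h at 37° C with 7-point, 3.16-fold compound series in triplicate; lysates read by SMN HTRF (665/620 nm ratio). Fold Smn increase over DMSO vehicle derived; EC1.5× is concentration giving 1.5-fold Smn, with maximum fold also reported.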

[2] = tested on: SMN2 minigene mRNA (SMN2-A minigene) in HEK293H cells; experiment: SMN2 minigene mRNA splicing RT-qPCR assay in cultured cells; type: cell-based, human; details: Homo sapiens, HEK293-H; concentration increasing full length SMN2 mRNA 1.5-fold relative to vehicle-treated cells; HEK293H cells with SMN2-A minigene, 24 hours, 7-point concentration data; read-out: EC1.5x for production of full length SMN2 mRNA
In short: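 HEK293H cells stably carrying SMN2-A minigene treated with compounds (7-point, 3.16-fold dilutions, duplicates) for 24 h at 37 °C. Full-length exon 7-containing minigene mRNA measured by multiplex RT-qPCR with GAPDH, normalized and expressed relative to vehicle (modified ΔΔCt); EC1.5× is concentration giving 1.5-fold increase.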

Compound	EC1.5x for Smn protein expression [1]	maximum fold (Fold) increase of Smn protein [1]	EC (1.5-fold increase) [2] [µM]	melting point [°C]
Cc1cn2nc(-c3cc(=O)n4cc(N5CC(N6CCCCC6)C5)ccc4n3)cc2c(C)n1 [Compound 765, 2-(4,6-dimethylpyrazolo[1,5-a]pyrazin-2-yl)-7-[3-(piperidin-1-yl)azetidin-1-yl]-4H-pyrido[1,2-a]pyrimidin-4-one]	** (an EC1.5× between >1 μM and ≤3 μM is indicated by two stars (**))	**** (a fold increase between >1.5 and ≤1.65 is indicated by four stars (****))	1 to 3	220 to 223
CCCc1nc(C)cn2nc(-c3cc(=O)n4cc(C5CCNCC5)ccc4n3)cc12 [Compound 766, 2-(6-methyl-4-propylpyrazolo[1,5-a]pyrazin-2-yl)-7-(piperidin-4-yl)-4H-pyrido[1,2-a]pyrimidin-4-one]	**** (an EC1.5x≤0.3 μM is indicated by four stars (****))	***** (a fold increase >1.65 is indicated by five stars (*****))	< 0.1	228 to 230
Cc1cn2nc(-c3cc(=O)n4cc(N5CCC6(CCNC6)C5)ccc4n3)cc2c(C)n1 (stereo not shown) [Compound 767, 7-(2,7-diazaspiro[4.4]non-2-yl)-2-(4,6-dimethylpyrazolo[1,5-a]pyrazin-2-yl)-4H-pyrido[1,2-a]pyrimidin-4-one]	**** (an EC1.5x≤0.3 μM is indicated by four stars (****))	***** (a fold increase >1.65 is indicated by five stars (*****))	< 0.1	208 to 210
Cc1cc(-c2cc(=O)n3cc(N4CCN(C)CC4)ccc3n2)cc2cn(C)nc12 [Compound 768, 2-(2,7-dimethyl-2H-indazol-5-yl)-7-(4-methylpiperazin-1-yl)-4H-pyrido[1,2-a]pyrimidin-4-one]	**** (an EC1.5x≤0.3 μM is indicated by four stars (****))	***** (a fold increase >1.65 is indicated by five stars (*****))	< 0.1	216 to 218
Cc1cn2nc(-c3cc(=O)n4cc(N5CC[C@@H](CN(C)C)C5)ccc4n3)cc2c(C)n1 [Compound 770, 7-{(3S)-3-[(dimethylamino)methyl]pyrrolidin-1-yl}-2-(4,6-dimethylpyrazolo[1,5-a]pyrazin-2-yl)-4H-pyrido[1,2-a]pyrimidin-4-one]	*** (an EC1.5× between >0.3 μM and ≤1 μM is indicated by three stars (***))	**** (a fold increase between >1.5 and ≤1.65 is indicated by four stars (****))	< 0.1	239 to 241
CCc1nc(C)cn2nc(-c3cc(=O)n4cc(C5CCNCC5)cc(C)c4n3)cc12 [Compound 771, 2-(4-ethyl-6-methylpyrazolo[1,5-a]pyrazin-2-yl)-9-methyl-7-(piperidin-4-yl)-4H-pyrido[1,2-a]pyrimidin-4-one]	**** (an EC1.5x≤0.3 μM is indicated by four stars (****))	***** (a fold increase >1.65 is indicated by five stars (*****))	< 0.1	241 to 249
Cc1cc(C2CCNCC2)cn2c(=O)cc(-c3ccc4c(cnn4C)c3)nc12 [Compound 772, 9-methyl-2-(1-methyl-1H-indazol-5-yl)-7-(piperidin-4-yl)-4H-pyrido[1,2-a]pyrimidin-4-one]	**** (an EC1.5x≤0.3 μM is indicated by four stars (****))	***** (a fold increase >1.65 is indicated by five stars (*****))	< 0.1	212 to 217
Cc1cc(-c2cc(=O)n3cc(C4CCNCC4)ccc3n2)cc2cnn(C)c12 [Compound 775, 2-(1,7-dimethyl-1H-indazol-5-yl)-7-(piperidin-4-yl)-4H-pyrido[1,2-a]pyrimidin-4-one]		*** (a fold increase between >1.35 and ≤1.5 is indicated by three stars (***))	0.3 to 1	220 to 222
Cc1cc(-c2cc(=O)n3cc(N4CCNCC4)ccc3n2)cc2cnn(C)c12 [Compound 776, 2-(1,7-dimethyl-1H-indazol-5-yl)-7-(piperazin-1-yl)-4H-pyrido[1,2-a]pyrimidin-4-one]		** (a fold increase between >1.2 and ≤1.35 is indicated by two stars (**))	1 to 3	160 to 163
Cc1cc(-c2cc(=O)n3cc(N4CCN[C@@H](C)C4)ccc3n2)cc2cnn(C)c12 [Compound 777, 2-(1,7-dimethyl-1H-indazol-5-yl)-7-[(3S)-3-methylpiperazin-1-yl]-4H-pyrido[1,2-a]pyrimidin-4-one]	** (an EC1.5× between >1 μM and ≤3 μM is indicated by two stars (**))	*** (a fold increase between >1.35 and ≤1.5 is indicated by three stars (***))	1 to 3	248 to 250
CCN(CC)C[C@@H]1CCN(c2ccc3nc(-c4cc5c(C)nc(C)cn5n4)cc(=O)n3c2)C1 [Compound 778, 7-{(3S)-3-[(diethylamino)methyl]pyrrolidin-1-yl}-2-(4,6-dimethylpyrazolo[1,5-a]pyrazin-2-yl)-4H-pyrido[1,2-a]pyrimidin-4-one]	*** (an EC1.5× between >0.3 μM and ≤1 μM is indicated by three stars (***))	***** (a fold increase >1.65 is indicated by five stars (*****))	< 0.1	194 to 196
Cc1cn2nc(-c3cc(=O)n4cc(N5CC(CN(C)C)C5)ccc4n3)cc2c(C)n1 [Compound 780, 7-{3-[(dimethylamino)methyl]azetidin-1-yl}-2-(4,6-dimethylpyrazolo[1,5-a]pyrazin-2-yl)-4H-pyrido[1,2-a]pyrimidin-4-one]	**** (an EC1.5x≤0.3 μM is indicated by four stars (****))	***** (a fold increase >1.65 is indicated by five stars (*****))	< 0.1	228 to 230
CCN(CC)CC1CN(c2ccc3nc(-c4cc5c(C)nc(C)cn5n4)cc(=O)n3c2)C1 [Compound 781, 7-{3-[(diethylamino)methyl]azetidin-1-yl}-2-(4,6-dimethylpyrazolo[1,5-a]pyrazin-2-yl)-4H-pyrido[1,2-a]pyrimidin-4-one]	**** (an EC1.5x≤0.3 μM is indicated by four stars (****))	***** (a fold increase >1.65 is indicated by five stars (*****))	< 0.1	205 to 207
CCc1nc(C)cn2cc(-c3cc(=O)n4cc(N5CCN6CCC[C@H]6C5)ccc4n3)cc12 [Compound 782, 2-(1-ethyl-3-methylpyrrolo[1,2-a]pyrazin-7-yl)-7-[(8aS)-hexahydropyrrolo[1,2-a]pyrazin-2(1H)-yl]-4H-pyrido[1,2-a]pyrimidin-4-one]	**** (an EC1.5x≤0.3 μM is indicated by four stars (****))	***** (a fold increase >1.65 is indicated by five stars (*****))	< 0.1	220 to 222
CCc1nc(C)cn2nc(-c3cc(=O)n4cc(N5CCN[C@H](C)C5)cc(C)c4n3)cc12 [Compound 783, 2-(4-ethyl-6-methylpyrazolo[1,5-a]pyrazin-2-yl)-9-methyl-7-[(3R)-3-methylpiperazin-1-yl]-4H-pyrido[1,2-a]pyrimidin-4-one]	**** (an EC1.5x≤0.3 μM is indicated by four stars (****))	***** (a fold increase >1.65 is indicated by five stars (*****))	< 0.1	223 to 233
Cc1cc(C2CCN(C)CC2)cn2c(=O)cc(-c3ccc4c(cnn4C)c3)nc12 [Compound 784, 9-methyl-2-(1-methyl-1H-indazol-5-yl)-7-(1-methylpiperidin-4-yl)-4H-pyrido[1,2-a]pyrimidin-4-one]	*** (an EC1.5× between >0.3 μM and ≤1 μM is indicated by three stars (***))	**** (a fold increase between >1.5 and ≤1.65 is indicated by four stars (****))	0.1 to 0.3	255 to 263
CCc1nc(C)cn2nc(-c3cc(=O)n4cc(N5CCN(C)[C@H](C)C5)cc(C)c4n3)cc12 [Compound 785, 7-[(3R)-3,4-dimethylpiperazin-1-yl]-2-(4-ethyl-6-methylpyrazolo[1,5-a]pyrazin-2-yl)-9-methyl-4H-pyrido[1,2-a]pyrimidin-4-one]	**** (an EC1.5x≤0.3 μM is indicated by four stars (****))	***** (a fold increase >1.65 is indicated by five stars (*****))	< 0.1	234 to 240
CCN1CCC(c2cc(C)c3nc(-c4ccc5c(cnn5C)c4)cc(=O)n3c2)CC1 [Compound 786, 7-(1-ethylpiperidin-4-yl)-9-methyl-2-(1-methyl-1H-indazol-5-yl)-4H-pyrido[1,2-a]pyrimidin-4-one]	*** (an EC1.5× between >0.3 μM and ≤1 μM is indicated by three stars (***))	**** (a fold increase between >1.5 and ≤1.65 is indicated by four stars (****))	0.1 to 0.3	236 to 240
